Paper PMC6153549 (Investigational New Drugs, 2018)
“Also recorded” adds a separate entry of the source. Read-outs that look alike come from different tables or passages of the source.

Legend:
[1] = lapatinib administered together with leucovorin, irinotecan and 5-fluorouracil; cited from earlier work
UGTs = conditions: in vitro, human liver microsomes; cited from earlier work
[2] = Plasma pharmacokinetics of lapatinib in rats (HPLC-MS/MS, non-compartmental); assay type: in vivo, Wistar rats; conditions: for AUC0-t / AUC(0-inf) / Cmax / Vd/F / k el / MRT last / tmax / AUMC0-t / Cl/F: plasma; for MRT last: read-out: MRT0-t
Method: The experimental protocol for this study was reviewed and approved by the Local Ethics Committee. All procedures were performed in accordance with the European Union regulations concerning the handling and use of laboratory animals. The study was based on the required minimum number of animals and observation time in order to obtain consistent data. […] The animals were allowed to acclimatise for a week before the beginning of the experiments. The rats were divided into three groups. […] In order to make sure that the animals received the entire dose of the drug, 1 mL of DMSO was then administered to rinse the probe. 80 μL of blood was collected from each rat by cutting off a piece of his tail. […] The blood samples were transferred into heparinised tubes and they were centrifuged at 2880 g for 10 min at 4 °C.
Chromatographic separation was performed on a Kinetex C18 column (50 × 4.6 mm, 2.6 μm, Phenomenex, Torrance, CA, USA). The column temperature and injection volume were set at 35 °C and 10 μL, respectively. The mobile phase comprised 0.1% formic acid in water with 5 mM ammonium formate (eluent A) and acetonitrile with 10% phase A (eluent B).
An aliquot of the rat plasma (20 μL) was mixed with 50 μL of IS solution (100 ng/mL) and 930 μL of methanol and then vortexed for 30 s. As a result, a total dilution factor of 50 was obtained. After centrifugation at 10,000 g (10 min), the supernatant was transferred into amber glass HPLC vials. The validation was performed according to the guidelines of EMA concerning validation of bioanalytical methods.
The pharmacokinetic parameters were estimated with the non-compartmental method, using Phoenix® WinNonlin® 7.0 software (Certara L.P.). kel – elimination rate constant; AUC0-t – area under the plasma concentration-time curve from zero to the time of the last measurable concentration; AUC0-∞ – area under the plasma concentration-time curve from zero to infinity; t0.5 – elimination half-life; Cl/F – clearance; Vd/F – volume of distribution; Cmax – maximum plasma concentration; tmax – time necessary to reach the maximum concentration; MRT0-t – mean residence time; AUMC0-t – area under the first moment curve.

[3] = cited from earlier work
UGT1A1 = tested on: UGT1A1; set-up: method as in PMID 26642944; conditions: cited from earlier work
UGT1A7 = tested on: UGT1A7; set-up: method as in PMID 26642944; conditions: cited from earlier work
UGT1A4 = tested on: UGT1A4; set-up: method as in PMID 26642944; conditions: cited from earlier work
[4] = male, Wistar, rat, po, 100 mg/kg, rats, lapatinib 100 mg/kg p.o. + paracetamol 100 mg/kg p.o. (IL + PA), M ± SD
[5] = male, Wistar, rat, po, 100 mg/kg, rats, lapatinib 100 mg/kg p.o. alone (IIL), M ± SD
[6] = rats, lapatinib 100 mg/kg p.o. + paracetamol 100 mg/kg p.o. (IL + PA), M ± SD
[7] = rats, lapatinib 100 mg/kg p.o. alone (IIL), M ± SD
[8] = patients treated with lapatinib

Q: Which “increase in AUC of SN-38” value [1] does the source give for `CCc1c2c(nc3ccc(O)cc13)-c1cc3c(c(=O)n1C2)COC(=O)[C@]3(O)CC` [SN-38] here?
A: Its value is “about 40%”.

Q: For `Cc1nc(Nc2ncc(C(=O)Nc3c(C)cccc3Cl)s2)cc(N2CCN(CCO)CC2)n1` [dasatinib], which “inhibition of paracetamol glucuronidation” value (UGTs) is on record?
A: The value was “inhibited paracetamol glucuronidation”.

Q: For `C#Cc1cccc(Nc2ncnc3cc(OCCOC)c(OCCOC)cc23)c1` [erlotinib, Erlotinib], which “inhibition of paracetamol glucuronidation” value (UGTs) is on record?
A: The value was “slight inhibitory effect”.

Q: With `Cc1ccc(NC(=O)c2ccc(CN3CCN(C)CC3)cc2)cc1Nc1nccc(-c2cccnc2)n1` [imatinib] as the compound, how does the “inhibition of paracetamol glucuronidation” value (UGTs) read?
A: Its value is “inhibited paracetamol glucuronidation”.

Q: What does the source list for `CS(=O)(=O)CCNCc1ccc(-c2ccc3ncnc(Nc4ccc(OCc5cccc(F)c5)c(Cl)c4)c3c2)o1` [lapatinib, Lapatinib]?
A: AUC0-t [2, 4]: 20700 ± 8270 ng·h/mL; AUC(0-inf) [2, 4]: 39500 ± 24000 ng·h/mL; Cmax [2, 4]: 2240 ± 585 ng/mL; Vd/F [2, 4]: 17.5 ± 2.55 L; k el [2, 4]: 1.94e-05 s⁻¹; MRT last [2, 4]: 7.28 ± 3.15 h; AUC0-t [2, 5]: 6080 ± 3930 ng·h/mL; AUC(0-inf) [2, 5]: 8040 ± 4750 ng·h/mL; Cmax [2, 5]: 787 ± 213 ng/mL; Vd/F [2, 5]: 57.2 ± 23.3 L; k el [2, 5]: 2.5e-05 s⁻¹; MRT last [2, 5]: 5.77 ± 1.95 h; tmax ([2]; male, Wistar, rat, po, 100 mg/kg, read-out: tmax): 2.42 ± 1.11 h; increase in Cmax ([2]; rats, co-administration with paracetamol (IL + PA) vs lapatinib alone (IIL)): 184%; AUMC0-t [2, 6]: 620.79 ± 1170.66 (188.6) mg × h^2/L; Cl/F [2, 6]: 2.81 ± 1.20 (42.8) L/h; tmax [2, 6]: 2.50 ± 0.84 (33.5) h; AUMC0-t [2, 7]: 40.79 ± 37.98 (93.1) mg × h^2/L; Cl/F [2, 7]: 11.46 ± 6.76 (59.0) L/h; patients with isolated ALT increase more than 3 times ULN ([3]; patients subjected to lapatinib therapy): 3–5%; patients in whom ULN was exceeded 5–20 times [3, 8]: 1.6%; patients with hyperbilirubinemia and severe liver damage [3, 8]: 0.2%; inhibition of paracetamol glucuronidation (UGTs): slight inhibitory effect; also recorded: weak inhibitor; UGT1A1 inhibition (UGT1A1): strong competitive inhibitor; UGT1A7 inhibition type (UGT1A7): non-competitive; UGT1A4 inhibition type (UGT1A4): mixed

Q: With `Cc1cn(-c2cc(NC(=O)c3ccc(C)c(Nc4nccc(-c5cccnc5)n4)c3)cc(C(F)(F)F)c2)cn1` [nilotinib] as the compound, how does the “inhibition of paracetamol glucuronidation” value (UGTs) read?
A: Its value is “slight inhibitory effect”.
